Measured values as given in ChEMBL document CHEMBL1146418, “A new flavone C-glycoside and antiplatelet and vasorelaxing flavones from Gentiana arisanensis” (J Nat Prod, 1997).

How the values were obtained:
Platelet [1] = experiment: Inhibition of arachidonic acid-induced platelet aggregation in rabbit plasma at 100 uM preincubated 3 mins before addition of thrombin by turbidimetric method; type: functional, Oryctolagus cuniculus; design: scale not given: the % may be the effect or the level left
Platelet [2] = experiment: Inhibition of collagen-induced platelet aggregation in rabbit plasma at 100 uM preincubated 3 mins before addition of thrombin by turbidimetric method; type: functional, Oryctolagus cuniculus; design: scale not given: the % may be the effect or the level left
Platelet [3] = experiment: Inhibition of arachidonic acid-induced platelet aggregation in rabbit plasma at 300 uM preincubated 3 mins before addition of thrombin by turbidimetric method; type: functional, Oryctolagus cuniculus; design: scale not given: the % may be the effect or the level left
Platelet [4] = experiment: Inhibition of platelet activating factor-induced platelet aggregation in rabbit plasma at 300 uM preincubated 3 mins before addition of thrombin by turbidimetric method; type: functional, Oryctolagus cuniculus; design: scale not given: the % may be the effect or the level left
Platelet [5] = experiment: Inhibition of collagen-induced platelet aggregation in rabbit plasma at 300 uM preincubated 3 mins before addition of thrombin by turbidimetric method; type: functional, Oryctolagus cuniculus; design: scale not given: the % may be the effect or the level left
Platelet [6] = experiment: Inhibition of thrombin-induced platelet aggregation in rabbit plasma at 300 uM preincubated 3 mins before addition of thrombin by turbidimetric method; type: functional, Oryctolagus cuniculus; design: scale not given: the % may be the effect or the level left
Platelet [7] = experiment: Inhibition of collagen-induced platelet aggregation in rabbit plasma at 50 uM preincubated 3 mins before addition of thrombin by turbidimetric method; type: functional, Oryctolagus cuniculus; design: scale not given: the % may be the effect or the level left
Platelet [8] = experiment: Inhibition of thrombin-induced platelet aggregation in rabbit plasma at 50 uM preincubated 3 mins before addition of thrombin by turbidimetric method; type: functional, Oryctolagus cuniculus; design: scale not given: the % may be the effect or the level left
Platelet [9] = experiment: Inhibition of arachidonic acid-induced platelet aggregation in rabbit plasma at 50 uM preincubated 3 mins before addition of thrombin by turbidimetric method; type: functional, Oryctolagus cuniculus; design: scale not given: the % may be the effect or the level left
Platelet [10] = experiment: Inhibition of platelet activating factor-induced platelet aggregation in rabbit plasma at 50 uM preincubated 3 mins before addition of thrombin by turbidimetric method; type: functional, Oryctolagus cuniculus; design: scale not given: the % may be the effect or the level left
Aorta [11] = experiment: Inhibition of noradrenaline-induced Wistar rat thoracic aorta tonic contraction in high K+ medium at 150 uM pretreated 15 mins before addition of Ca2+ and K+ relative to control; type: functional; design: scale not given: the % may be the effect or the level left
Aorta [12] = experiment: Inhibition of Ca2+-induced Wistar rat thoracic aorta contraction at 150 uM in high K+ medium pretreated 15 mins before addition of Ca2+ and K+ relative to control; type: functional; design: scale not given: the % may be the effect or the level left
Aorta [13] = experiment: Inhibition of noradrenaline-induced Wistar rat thoracic aorta phasic contraction in high K+ medium at 150 uM pretreated 15 mins before addition of Ca2+ and K+ relative to control; type: functional; design: scale not given: the % may be the effect or the level left
Aorta [14] = experiment: Inhibition of Ca2+-induced Wistar rat thoracic aorta contraction at 300 uM in high K+ medium pretreated 15 mins before addition of Ca2+ and K+ relative to control; type: functional; design: scale not given: the % may be the effect or the level left
Platelet [15] = experiment: Inhibition of arachidonic acid-induced platelet aggregation in rabbit plasma preincubated 3 mins before addition of thrombin by turbidimetric method; settings: Oryctolagus cuniculus
Platelet [16] = experiment: Inhibition of arachidonic acid-induced platelet aggregation in rabbit plasma at 150 uM preincubated 3 mins before addition of thrombin by turbidimetric method; type: functional, Oryctolagus cuniculus; design: scale not given: the % may be the effect or the level left
Aorta [17] = experiment: Inhibition of noradrenaline-induced Wistar rat thoracic aorta tonic contraction in high K+ medium at 300 uM pretreated 15 mins before addition of Ca2+ and K+ relative to control; type: functional; design: scale not given: the % may be the effect or the level left
Aorta [18] = experiment: Inhibition of Ca2+-induced Wistar rat thoracic aorta contraction at 30 uM in high K+ medium pretreated 15 mins before addition of Ca2+ and K+ relative to control; type: functional; design: scale not given: the % may be the effect or the level left
Aorta [19] = experiment: Inhibition of noradrenaline-induced Wistar rat thoracic aorta phasic contraction in high K+ medium at 90 uM pretreated 15 mins before addition of Ca2+ and K+ relative to control; type: functional; design: scale not given: the % may be the effect or the level left
Aorta [20] = experiment: Inhibition of Ca2+-induced Wistar rat thoracic aorta contraction at 90 uM in high K+ medium pretreated 15 mins before addition of Ca2+ and K+ relative to control; type: functional; design: scale not given: the % may be the effect or the level left
Aorta [21] = experiment: Inhibition of noradrenaline-induced Wistar rat thoracic aorta tonic contraction in high K+ medium at 30 uM pretreated 15 mins before addition of Ca2+ and K+ relative to control; type: functional; design: scale not given: the % may be the effect or the level left
Aorta [22] = experiment: Inhibition of noradrenaline-induced Wistar rat thoracic aorta phasic contraction in high K+ medium pretreated 15 mins before addition of Ca2+ and K+ relative to control
Platelet [23] = experiment: Inhibition of arachidonic acid-induced platelet aggregation in rabbit plasma at 60 uM preincubated 3 mins before addition of thrombin by turbidimetric method; type: functional, Oryctolagus cuniculus; design: scale not given: the % may be the effect or the level left
Platelet [24] = experiment: Inhibition of arachidonic acid-induced platelet aggregation in rabbit plasma at 15 uM preincubated 3 mins before addition of thrombin by turbidimetric method; type: functional, Oryctolagus cuniculus; design: scale not given: the % may be the effect or the level left
Aorta [25] = experiment: Inhibition of noradrenaline-induced Wistar rat thoracic aorta tonic contraction in high K+ medium at 90 uM pretreated 15 mins before addition of Ca2+ and K+ relative to control; type: functional; design: scale not given: the % may be the effect or the level left
Aorta [26] = experiment: Inhibition of noradrenaline-induced Wistar rat thoracic aorta phasic contraction in high K+ medium at 300 uM pretreated 15 mins before addition of Ca2+ and K+ relative to control; type: functional; design: scale not given: the % may be the effect or the level left
Aorta [27] = experiment: Inhibition of noradrenaline-induced Wistar rat thoracic aorta phasic contraction in high K+ medium at 30 uM pretreated 15 mins before addition of Ca2+ and K+ relative to control; type: functional; design: scale not given: the % may be the effect or the level left
Aorta [28] = experiment: Inhibition of noradrenaline-induced Wistar rat thoracic aorta tonic contraction in high K+ medium pretreated 15 mins before addition of Ca2+ and K+ relative to control
Aorta [29] = experiment: Inhibition of noradrenaline-induced Wistar rat thoracic aorta phasic contraction in high K+ medium at 9 uM pretreated 15 mins before addition of Ca2+ and K+ relative to control; type: functional; design: scale not given: the % may be the effect or the level left
Aorta [30] = experiment: Inhibition of noradrenaline-induced Wistar rat thoracic aorta tonic contraction in high K+ medium at 9 uM pretreated 15 mins before addition of Ca2+ and K+ relative to control; type: functional; design: scale not given: the % may be the effect or the level left
Aorta [31] = experiment: Inhibition of Ca2+-induced Wistar rat thoracic aorta contraction in high K+ medium pretreated 15 mins before addition of Ca2+ and K+
Platelet [32] = experiment: Inhibition of arachidonic acid-induced platelet aggregation in rabbit plasma at 30 uM preincubated 3 mins before addition of thrombin by turbidimetric method; type: functional, Oryctolagus cuniculus; design: scale not given: the % may be the effect or the level left

SMILES: CC(=O)OC[C@H]1O[C@@H](OC[C@H]2O[C@@H](c3c(OC(C)=O)cc4oc(-c5ccc(OC(C)=O)c(OC(C)=O)c5)cc(=O)c4c3OC(C)=O)[C@H](OC(C)=O)[C@@H](OC(C)=O)[C@@H]2OC(C)=O)[C@H](OC(C)=O)[C@@H](OC(C)=O)[C@@H]1OC(C)=O
- Activity (Platelet [1]): 79.9%
- Activity (Platelet [2]): 80.5%

SMILES: O=c1cc(-c2ccc(O)cc2)oc2cc(O)c([C@@H]3O[C@H](CO[C@@H]4O[C@H](CO)[C@@H](O)[C@H](O)[C@H]4O)[C@@H](O)[C@H](O)[C@H]3O)c(O)c12
- Activity (Platelet [3]): 84.9%
- Activity (Platelet [4]): 84.6%
- Activity (Platelet [5]): 85.6%
- Activity (Platelet [6]): 87.4%

SMILES: O=c1cc(-c2ccc(O)cc2)oc2cc(O)c([C@@H]3O[C@H](CO)[C@@H](O)[C@H](O)[C@H]3O)c(O)c12 [ISOVITEXIN]
- Activity (Platelet [3]): 85.1%
- Activity (Platelet [4]): 83.9%
- Activity (Platelet [5]): 84.7%
- Activity (Platelet [6]): 36.5%

SMILES: CC(=O)OC[C@H]1O[C@@H](c2c(OC(C)=O)cc3oc(-c4ccc(OC(C)=O)c(OC(C)=O)c4)cc(=O)c3c2OC(C)=O)[C@H](OC(C)=O)[C@@H](OC(C)=O)[C@@H]1OC(C)=O [ISOORIENTIN PERACETATE]
- Activity (Platelet [3]): 72.4%
- Activity (Platelet [4]): 74.7%
- Activity (Platelet [5]): 68.6%
- Activity (Platelet [6]): 79%

SMILES: CC(=O)Oc1ccccc1C(=O)O [ASPIRIN]
- Activity (Platelet [7]): 85.4%
- Activity (Platelet [8]): 91.9%
- Activity (Platelet [9]): 0%
- Activity (Platelet [10]): 90.5%

SMILES: O=c1cc(-c2ccc(O)c(O)c2)oc2cc(O[C@@H]3O[C@H](CO)[C@@H](O)[C@H](O)[C@H]3O)cc(O)c12 [GALUTEOLIN]
- Activity (Aorta [11]): 88.2%
- Activity (Platelet [3]): 80.2%
- Activity (Platelet [4]): 71.9%
- Activity (Platelet [5]): 80.5%
- Activity (Aorta [12]): 93.4%
- Activity (Platelet [6]): 87%
- Activity (Aorta [13]): 84.5%

SMILES: O=c1cc(-c2ccc(O)c(O)c2)oc2cc(O)cc(O)c12 [LUTEOLIN]
- Activity (Aorta [14]): 28.6%
- IC50 (Platelet [15]): 43.5 µM
- Activity (Platelet [16]): 0%
- Activity (Platelet [3]): 0%
- Activity (Aorta [17]): 22.9%
- Activity (Aorta [18]): 69.5%
- Activity (Aorta [19]): 29.3%
- Activity (Platelet [4]): 53%
- Activity (Aorta [20]): 49.9%
- Activity (Aorta [21]): 52.3%
- IC50 (Aorta [22]): 68 µM
- Activity (Platelet [23]): 20.5%
- Activity (Platelet [24]): 79.2%
- Activity (Aorta [25]): 32.6%
- Activity (Platelet [5]): 2.8%
- Activity (Aorta [26]): 14.9%
- Activity (Aorta [27]): 64.7%
- IC50 (Aorta [28]): 72 µM
- Activity (Aorta [29]): 92.8%
- Activity (Aorta [30]): 99.2%
- IC50 (Aorta [31]): 156 µM
- Activity (Platelet [6]): 34.7%
- Activity (Platelet [32]): 53%

SMILES: O=c1cc(-c2ccc(O)c(O)c2)oc2cc(O)c([C@@H]3O[C@H](CO[C@@H]4O[C@H](CO)[C@@H](O)[C@H](O)[C@H]4O)[C@@H](O)[C@H](O)[C@H]3O)c(O)c12
- Activity (Platelet [3]): 83.3%
- Activity (Platelet [4]): 83.5%
- Activity (Platelet [5]): 85.4%
- Activity (Platelet [6]): 85.7%

SMILES: O=c1cc(-c2ccc(O)c(O)c2)oc2cc(O)c([C@@H]3O[C@H](CO)[C@@H](O)[C@H](O)[C@H]3O)c(O)c12 [ISOORIENTIN]
- Activity (Aorta [11]): 86.6%
- Activity (Platelet [3]): 66.9%
- Activity (Platelet [4]): 77.1%
- Activity (Platelet [5]): 60.8%
- Activity (Aorta [12]): 106%
- Activity (Platelet [6]): 85.5%
- Activity (Aorta [13]): 91.7%
